The test system of assay [1] is human serum-derived γ-globulin. Put plainly: Dynamic binding capacity (DBC) measurement on ligand-immobilized NHS-activated prepack column. To be noted: 1 mL column; 1 mg/mL γ-globulin at 1 mL/min; 10% breakthrough at 280 nm; equimolar ligand (7.3 mg protein or 0.5 mg peptide). The protocol:
To examine whether the IgG-binding peptide divalent fusion protein can be used as an affinity ligand for human antibody purification, the protein prepared in Example 2 (sfGFP-173 C-2Opt1 GS12) was immobilized on an NHS-activated prepack column (GE Healthcare), and the adsorption performance was evaluated. The protein-immobilized column was prepared by the following method. A syringe was used to feed the solution.
5 mL of 1 mM hydrochloric acid was fed to a NHS-activated prepack column with a volume of 1 mL to remove the isopropanol solution in the column. Then, 1 mL of a coupling solution (200 mM carbonate buffer, 500 mM sodium chloride, pH 8.3) containing 7.3 mg of an IgG-binding peptide fusion protein was fed and immobilized at room temperature for 1 hour. The unreacted NHS ester was blocked by adding tris-hydroxymethylaminomethane. Finally, 5 mL of an adsorption solution (20 mM phosphate buffer, 150 mM sodium chloride, pH 7.4) was fed and used for DBC measurement.
The DBC measurement was performed using a liquid chromatography instrument AKTAexplore (GE Healthcare). […] The DBC was determined from the amount of the sample fed until the value of an absorbance at 280 nm excluding the non-adsorbed component reached 10% of the absorbance of the entire sample. […]

The next assay deals with human IgG. The experiment in a line: Affinity measurement to IgG by surface plasmon resonance (BIAcore T200). Format: binding. The note with it: ligand immobilized onto sensor chip, HBS-EP buffer pH 7.4. The procedure: The affinity analysis was performed by the following method. First, a solution containing equal amounts of 0.4 M EDC (1-ethyl-3-(3-dimethylaminopropyl)-carbodiimide) and 0.1 M sulfo-NHS (sulfo-N-hydroxysuccinimide)) was injected at a flow rate of […] onto a CMS sensor chip set in BIAcore T200 (GE healthcare), thereby activating the sensor chip. Then, under the condition of pH 5.5 (10 mM Na acetate), the purified protein (sfGFP-C-1Opt1) described above was immobilized onto the sensor chip. For the measurement, HBS-EP buffer (10 mM HEPES, 150 mM NaCl, 0.005% Tween 20, 3 mM EDTA, pH 7.4) was used, and the binding reaction was monitored by injecting 6.25, 12.5, 25, 50, 100, 200, and 400 nM human IgG for 180 seconds at a flow rate of […]. For measuring the dissociation reaction, only the buffer was injected for 600 seconds. The analysis of interaction parameters was performed using BIA evalution T100 software.
As Comparative Example 1, a scaffold protein (sfGFP having a His tag; DNA sequence: SEQ ID NO: 40, amino acid sequence: SEQ ID NO: 41) to which an IgG-binding peptide was not fused was expressed and purified in the same manner as in Example 1, and affinity was measured.
Proteins including two IgG-binding peptides, each consisting of the amino acid sequences represented by SEQ ID NO: 45, SEQ ID NO: 47, and SEQ ID NO: 49 (sfGFP-N C-2Opt1GS12 (DNA sequence: SEQ ID NO: 44), sfGFP-173 C-2Opt1 GS12 (DNA sequence: SEQ ID NO: 46), and sfGFP-173 C-2Opt1GS13 (DNA sequence: SEQ ID NO: 48)) were expressed and purified by the same method as in Example 1, and the affinity was measured.
As Comparative Example 2, the affinity measurement of the peptide (amino acid sequence: SEQ ID NO: 18) prepared by chemical synthesis was carried out in the same manner as in Example 1.

“GPDCAYHRGELVWCTFH [Comparative Example 2, reference compound]”: the “DBC (dynamic binding capacity)” value in assay [1] turned out to be 6.9 mg/mL-column. Further, the association rate constant (kon) in the assay on human IgG (6.25-400 nM human IgG injected 180 s) is 330000 M⁻¹ s⁻¹. Besides, in the assay on human IgG (buffer only injected 600 s for dissociation), the koff came out at 0.0048 s⁻¹. Also, the Kd on human IgG (human IgG as analyte) was found to be 14 nM.

Usually kon stands for the rate constant with which the complex forms. As a reminder, the koff is the rate constant with which the complex falls apart. Higher therefore signals fast dissociation. By Kd is commonly meant a measure of binding affinity in units of concentration. Higher therefore signals lower affinity.

Values taken from patent publication US11643474B2, “Peptide fusion protein” (KAGOSHIMA UNIVERSITY, priority 2018, dated 2023).
